Columns and labels:
Assay type in all cases: cell-based
[1] = system: CEM (human lymphoblastoid) cells; assay: Cellular toxicity assay, CEM cells
Procedure: (§1) The toxicity of the compounds was assessed in Vero, human PBM, CEM (human lymphoblastoid), MT-2, and HepG2 cells, as described previously (see Schinazi R. F., Sommadossi J.-P., Saalmann V., Cannon D. L., Xie M.-Y., Hart G. C., Smith G. A. & Hahn E. F. Antimicrob. Agents Chemother. 1990, 34, 1061-67). Cycloheximide was included as positive cytotoxic control, and untreated cells exposed to solvent were included as negative controls. The cytotoxicity IC50 was obtained from the concentration-response curve using the median effective method described previously (see Chou T.-C. & Talalay P. Adv. Enzyme Regul. 1984, 22, 27-55; Belen'kii M. S. & Schinazi R. F. Antiviral Res. 1994, 25, 1-11).

Vero cells = assay: Cellular toxicity assay, Vero cells
Procedure: as §1

human PBM cells = assay: Cellular toxicity assay, PBM cells
Procedure: as §1

COC(=O)N[C@H](C(=O)N1C[C@@H](n2cc(C(=O)OC)nn2)C[C@H]1c1ncc(-c2ccc(-c3ccc(-c4cnc([C@@H]5C[C@H](n6cc(C(=O)OC)nn6)CN5C(=O)[C@@H](NC(=O)OC)C(C)C)[nH]4)cc3)cc2)[nH]1)C(C)C
Toxicities (μM) CEM [1]: 13.5 µM | Toxicities (μM) VERO (Vero cells): ≥100 µM | Toxicities (μM) PBM (human PBM cells): 53 µM

COC(=O)N[C@H](C(=O)N1C[C@@H](n2cc(COC(C)=O)nn2)C[C@H]1c1ncc(-c2ccc(-c3ccc(-c4cnc([C@@H]5C[C@H](n6cc(COC(C)=O)nn6)CN5C(=O)[C@@H](NC(=O)OC)C(C)C)[nH]4)cc3)cc2)[nH]1)C(C)C
Toxicities (μM) CEM [1]: 13.5 µM | Toxicities (μM) VERO (Vero cells): ≥100 µM | Toxicities (μM) PBM (human PBM cells): 53 µM

COC(=O)N[C@H](C(=O)N1C[C@@H](SC)C[C@H]1c1ncc(-c2ccc(-c3ccc(-c4cnc([C@@H]5C[C@H](SC)CN5C(=O)[C@@H](NC(=O)OC)C(C)C)[nH]4)cc3)cc2)[nH]1)C(C)C
Toxicities (μM) CEM [1]: 13.3 µM | Toxicities (μM) VERO (Vero cells): 10.9 µM | Toxicities (μM) PBM (human PBM cells): 15.6 µM

COC(=O)N[C@H](C(=O)N1C[C@H](n2cc(-c3ccccc3)nn2)C[C@H]1c1ncc(-c2ccc(-c3ccc(-c4cnc([C@@H]5C[C@@H](n6cc(-c7ccccc7)nn6)CN5C(=O)[C@@H](NC(=O)OC)C(C)C)[nH]4)cc3)cc2)[nH]1)C(C)C
Toxicities (μM) CEM [1]: >100 µM | Toxicities (μM) VERO (Vero cells): >100 µM | Toxicities (μM) PBM (human PBM cells): >100 µM

COC(=O)N[C@H](C(=O)N1C[C@H](n2ccnn2)C[C@H]1c1ncc(-c2ccc(-c3ccc(-c4cnc([C@@H]5C[C@@H](n6cc([Si](C)(C)C)nn6)CN5C(=O)[C@@H](NC(=O)OC)C(C)C)[nH]4)cc3)cc2)[nH]1)C(C)C
Toxicities (μM) CEM [1]: 16.2 µM | Toxicities (μM) VERO (Vero cells): >100 µM | Toxicities (μM) PBM (human PBM cells): 3 µM

COC(=O)N[C@H](C(=O)N1C[C@H](n2cc([Si](C)(C)C)nn2)C[C@H]1c1ncc(-c2ccc(-c3ccc(-c4cnc([C@@H]5C[C@@H](n6cc([Si](C)(C)C)nn6)CN5C(=O)[C@@H](NC(=O)OC)C(C)C)[nH]4)cc3)cc2)[nH]1)C(C)C
Toxicities (μM) CEM [1]: 25.2 µM | Toxicities (μM) VERO (Vero cells): >100 µM | Toxicities (μM) PBM (human PBM cells): >100 µM
